Patent publication US11407812B2, “Targeted expression of chloride channels and methods of use thereof” (GOLEINI INC., priority 2015, dated 2022)

How the values were obtained:
[1] = test system: SNI model of neuropathic pain in the rat; experiment: Spared nerve injury (SNI) model of neuropathic pain, von Frey withdrawal threshold (Example 5); assay type: in vivo; settings: for withdrawal threshold / reduction of the allodynic response: Control vector animals
From the text: Under isoflurane anesthesia the skin on the lateral surface of the thigh was incised and a section made directly through the biceps femoris muscle exposing the sciatic nerve and its three terminal branches: the sural, common peroneal and tibial nerves. The SNI procedure comprised an axotomy and ligation of the tibial and common peroneal nerves leaving the sural nerve intact. The common peroneal and the tibial nerves were tight-ligated with 5.0 silk and sectioned distal to the ligation, removing 2±4 mm of the distal nerve stump. Great care was taken to avoid any contact with or stretching of the intact sural nerve. Muscle and skin were closed in two layers (Decosterd I. and Woolf C. (2000) Pain 87(2):149-158). In the current study this was considered as Day 0.
Testing was performed during the day portion of the circadian cycle only (06:00-18:00 h). Rats were placed in an inverted plastic cage on an elevated wire mesh platform which allowed full access to the paws. Behavioral accommodation was allowed for approximately 15 min, until cage exploration and major grooming activities ceased. The area tested was the lateral region of the plantar left hind paw, in the sural nerve distribution, avoiding the less sensitive tori (footpads). The paw was touched with 1 of a series of 8 von Frey filaments with logarithmically incremental stiffness (0.41, 0.70, 1.20, 2.00, 3.63, 5.50, 8.50, and 15.10 g) (Stoelting). The von Frey filament was presented perpendicular to the plantar surface with sufficient force to cause slight buckling against the paw, and held for approximately 6-8 s. Stimuli were presented at intervals of several seconds, allowing for apparent resolution of any behavioral responses to previous stimuli. A positive response was noted if the paw was sharply withdrawn. Flinching immediately upon removal of the hair was also considered a positive response. Ambulation was considered an ambiguous response, and in such cases the stimulus was repeated. Based on observations on normal, un-operated rats, the cut-off of a 15.10 g filament (˜10% of the body weight of the smaller rats) was selected as the upper limit for testing, since stiffer filaments tended to raise the entire limb rather than to buckle, substantially changing the nature of the stimulus (Chaplan S. et al. (1994) J Neurosci Methods 53(1): 55-63).
One day prior to the surgery (Day −1) animals were tested for their baseline response to mechanical stimulation (mechanical sensitivity). At 10 days post-surgery all animals were re-tested for their mechanical sensitivity.
At days 13, 22 and 35 post-treatment (days 23, 32 and 45 post-surgery) animals were re-evaluated for their mechanical sensitivity. For all of these measurements the operator was blinded as to the identity of the animals.
At day 36 post-treatment (day 46 post-surgery) the animals were dosed with gabapentin (100 mg/kg: IP). At 1 hour and 2 hours post-gabapentin administration the animals were evaluated for their sensitivity to mechanical stimulation.
The 50% withdrawal threshold was determined using the up-down method of Dixon (Chaplan S. et al. (1994) J Neurosci Methods 53(1):55-63; Dixon W J. (1980) Ann. Rev. Pharmacol. Toxicol. 20:441-462). In this paradigm, testing was initiated with the 2.0 g filament, in the middle of the series. Stimuli were always presented in a consecutive fashion, whether ascending or descending. In the absence of a paw withdrawal response to the initially selected filament, a stronger stimulus was presented; in the event of paw withdrawal, the next weaker stimulus was chosen. According to Dixon, optimal threshold calculation by this method requires 6 responses in the immediate vicinity of the 50% threshold. Since the threshold is not known, strings of similar responses may be generated as the threshold is approached from either direction.

[2] = target: T1, GlyR α-subunit (hGlyRa1) (Homo sapiens, UniProt P23415); experiment: FLIPR membrane potential assay in HEK-293 cells expressing hGlyRa1; assay type: cell-based
T1 construct: P2A-mEYFP (C); host or cells: HEK-293
T1 sequence (P23415 29-457): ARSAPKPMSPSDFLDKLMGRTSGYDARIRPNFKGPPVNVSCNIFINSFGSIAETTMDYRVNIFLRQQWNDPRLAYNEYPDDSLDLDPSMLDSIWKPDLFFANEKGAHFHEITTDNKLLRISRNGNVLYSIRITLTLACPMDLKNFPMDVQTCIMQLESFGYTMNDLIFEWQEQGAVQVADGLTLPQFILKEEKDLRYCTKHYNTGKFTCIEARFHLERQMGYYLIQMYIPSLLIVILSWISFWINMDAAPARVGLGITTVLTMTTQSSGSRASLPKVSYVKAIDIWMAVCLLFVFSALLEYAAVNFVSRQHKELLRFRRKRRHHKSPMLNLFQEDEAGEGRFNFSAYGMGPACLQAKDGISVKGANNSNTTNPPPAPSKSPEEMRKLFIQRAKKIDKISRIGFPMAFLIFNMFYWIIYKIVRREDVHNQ
Description: For FlexStation assays, HEK-293 cells were plated at 20,000 cells/well, with a plating volume of 100 μl/well, in a black-sided/clear-bottomed 96-well imaging plate (BD Falcon #353219). For transfection, […] in 750 μl Opti-MEM (Gibco 31985-070) was mixed with 30 μl ExpressFect in 750 μl Opti-MEM, pre-incubated for 20 minutes, and then added at 15 μl/well to cells containing 100 μl fresh culture media. Cells were transfected 24 hours after plating and assayed 48 hours after transfection.
A fluorescence-based assay employing the FLIPR Membrane Potential Assay Kit, BLUE formulation, (Molecular Devices, #R8042) was used to detect voltage changes across the cell membrane. Dye loading buffer was prepared according to package literature. Specifically, the contents of one vial of BLUE reagent was dissolved with 5 ml of 1×Assay Buffer, followed by a wash of the vial with another 5 ml of 1× Assay Buffer, to yield a total volume of 10 ml of dye loading buffer. Unused portions of dye loading buffer were stored at −20° C. and used within 5 days. […] Cells were then loaded with 50 μl of Blue dye loading buffer and incubated for 40 min at 37° C./5% CO2. The signal was detected using the FlexStation 3 multimode benchtop microplate reader operated by SoftMax Pro Data Acquisition & Analysis Software (Molecular Devices). Excitation and emission wavelengths were set at 530 nm and 565 nm, respectively, with an emission cut-off of 550 nm. Plate reads were performed at 30° C. with a ‘Low PMT’ setting. […] Other FlexStation parameters included a pipette height of 130 an initial well volume of 100 μl, a transfer volume of 50 μl (therefore, drug concentrations were prepared 3×), and a transfer rate setting of 2, corresponding to ˜31 μl/sec.

[3] = in vivo; cited from earlier work
[4] = test system: GlyR; settings: read-out: EC50 for gating of GlyR; cited from earlier work
[5] = target: T2, L9′A mutated GluCl α-subunit (GluCl*) (Caenorhabditis elegans, UniProt G5EBR3, L315A); assay type: cell-based; settings: increasing doses of ivermectin, cells expressing GluCl*
T2 construct: expressed in transfected cells; host or cells: HEK-293
T2 sequence (G5EBR3 21-461 L315A): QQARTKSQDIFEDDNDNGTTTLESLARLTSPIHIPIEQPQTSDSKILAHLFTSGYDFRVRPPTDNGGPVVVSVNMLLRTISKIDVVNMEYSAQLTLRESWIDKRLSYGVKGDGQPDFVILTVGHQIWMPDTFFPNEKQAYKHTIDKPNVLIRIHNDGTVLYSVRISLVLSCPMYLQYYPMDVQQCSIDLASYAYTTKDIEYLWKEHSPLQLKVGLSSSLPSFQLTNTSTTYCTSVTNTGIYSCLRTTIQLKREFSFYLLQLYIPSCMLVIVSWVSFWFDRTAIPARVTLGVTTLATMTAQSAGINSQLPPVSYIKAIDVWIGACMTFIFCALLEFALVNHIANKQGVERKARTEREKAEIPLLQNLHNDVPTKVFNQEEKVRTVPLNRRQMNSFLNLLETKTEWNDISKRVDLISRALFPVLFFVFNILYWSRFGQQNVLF

[6] = test system: wild-type α-subunit of the GluCl glutamate receptor; experiment: FLIPR membrane potential assay in HEK-293 cells expressing wild-type GluCl α-subunit; assay type: cell-based, Caenorhabditis elegans
Description: Cells were transfected 24 hours after plating and assayed 48 hours after transfection.
A fluorescence-based assay employing the FLIPR Membrane Potential Assay Kit, BLUE formulation, (Molecular Devices, #R8042) was used to detect voltage changes across the cell membrane. Dye loading buffer was prepared according to package literature. Specifically, the contents of one vial of BLUE reagent was dissolved with 5 ml of 1× Assay Buffer, followed by a wash of the vial with another 5 ml of 1× Assay Buffer, to yield a total volume of 10 ml of dye loading buffer. Unused portions of dye loading buffer were stored at −20° C. and used within 5 days. For the functional assay, culture medium was removed from the cells and replaced with 50 DMEM. Cells were then loaded with 50 μl of Blue dye loading buffer and incubated for 40 min at 37° C./5% CO2. The signal was detected using the FlexStation 3 multimode benchtop microplate reader operated by SoftMax Pro Data Acquisition & Analysis Software (Molecular Devices). Excitation and emission wavelengths were set at 530 nm and 565 nm, respectively, with an emission cut-off of 550 nm. Plate reads were performed at 30° C. with a ‘Low PMT’ setting. Run times, of which the first 20 s measured basal fluorescence, were 300 s for ivermectin-induced signals. […]

[7] = test system: Human airway smooth muscle (HASM) cells; experiment: Histamine-induced increase in intracellular Ca++ (Fluo 8); assay type: cell-based
Description: Human airway smooth muscle (HASM) cells were derived from tracheas obtained from the National Disease Research Interchange (Philadelphia, Pa., USA) and from the International Institute for the Advancement of Medicine (Edison, N.J., USA). The cells were cultured in Ham's F-12 medium supplemented with 10% FBS, 100 U mL^−1 penicillin, 0.1 mg mL^−1 streptomycin and 2.5 mg mL^−1 amphotericin B, and this medium was replaced every 72 h. HASM cells in subculture during passages 1-5 were used, because these cells retain the expression of native contractile protein. The HASM cells were derived from healthy normal donors.
Cells were serum starved for 24 hr and loaded with Fluo 8 calcium sensing dye for 1 hr prior to stimulation with histamine. […] All data from both studies is expressed as relative fluorescent units.

[8] = test system: HEK-293 cells; assay type: cell-based, human; settings: 48 hours post-transfection
Description: […]. […] […]. […] Five separate wells were evaluated for each condition (un-transfected, mock-transfected, GluCl and GluCl*).

NCC1(CC(=O)O)CCCCC1 [Gabapentin]
withdrawal threshold ([1]; 1 hour post dose, 100 mg/kg IP): 3.44 ± 0.36 g | reduction of the allodynic response ([1]; 1 hour post-dose, 100 mg/kg IP): 25% | withdrawal threshold ([1]; 2 hours post dose, 100 mg/kg IP): 4.15 ± 0.19 g | reduction of the allodynic response ([1]; 2 hours post-dose, 100 mg/kg IP): 44% | withdrawal threshold ([1]; pre-dose, day 46 post-surgery): 2.46 ± 0.49 g | effect on response to mechanical stimulation in animals previously treated with GTX-01* ([1]; rat, in vivo): no effect

NCC(=O)O [Glycine]
EC100 of change in membrane potential ([2]; HEK-293 cells expressing hGlyRa1): approximately 300 μM | half-life in the body [3]: 26 to 245 min | EC50 [4]: ~100 µM

NCCS(=O)(=O)O [Taurine]
effect on membrane potential ([2]; taurine 1 μM to 1 mM, monomeric hGlyRa1 channel): no direct effect

Ivermectin
effect of ivermectin on change in membrane potential [5]: did not augment the change in membrane potential | EC50 ([6]; HEK-293 cells expressing wild-type GluCl α-subunit alone, 4.5 minutes post addition, read-out: EC50 of change in membrane potential): 0.147 µM

B1: hGlyRa1 (protein, listed as Homo sapiens)
chain: MYSFNTLRLYLWETIVFFSLAASKEAEAARSAPKPMSPSDFLDKLMGRTSGYDARIRPNFKGPPVNVSCNIFINSFGSIAETTMDYRVNIFLRQQWNDPRLAYNEYPDDSLDLDPSMLDSIWKPDLFFANEKGAHFHEITTDNKLLRISRNGNVLYSIRITLTLACPMDLKNFPMDVQTCIMQLESFGYTMNDLIFEWQEQGAVQVADGLTLPQFILKEEKDLRYCTKHYNTGKFTCIEARFHLERQMGYYLIQMYIPSLLIVILSWISFWINMDAAPARVGLGITTVLTMTTQSSGSRASLPKVSYVKAIDIWMAVCLLFVFSALLEYAAVNFVSRQHKELLRFRRKRRHHKSPMLNLFQEDEAGEGRFNFSAYGMGPACLQAKDGISVKGANNSNTTNPPPAPSKSPEEMRKLFIQRAKKIDKISRIGFPMAFLIFNMFYWIIYKIVRREDVHNQ
unstimulated change in membrane potential [2]: no unstimulated change in membrane potential | effect on histamine-induced increase in intracellular Ca [7]: antagonized

B2: wild-type GluCl α-subunit: fluorescently tagged Caenorhabditis elegans GluCl α-subunit, wild type, expressed from plasmid (protein, UniProt G5EBR3 21-461, looked up)
Glutamate-gated chloride …: QQARTKSQDIFEDDNDNGTTTLESLARLTSPIHIPIEQPQTSDSKILAHLFTSGYDFRVRPPTDNGGPVVVSVNMLLRTISKIDVVNMEYSAQLTLRESWIDKRLSYGVKGDGQPDFVILTVGHQIWMPDTFFPNEKQAYKHTIDKPNVLIRIHNDGTVLYSVRISLVLSCPMYLQYYPMDVQQCSIDLASYAYTTKDIEYLWKEHSPLQLKVGLSSSLPSFQLTNTSTTYCTSVTNTGIYSCLRTTIQLKREFSFYLLQLYIPSCMLVIVSWVSFWFDRTAIPARVTLGVTTLLTMTAQSAGINSQLPPVSYIKAIDVWIGACMTFIFCALLEFALVNHIANKQGVERKARTEREKAEIPLLQNLHNDVPTKVFNQEEKVRTVPLNRRQMNSFLNLLETKTEWNDISKRVDLISRALFPVLFFVFNILYWSRFGQQNVLF
cell viability [8]: 91.8% | unstimulated change in membrane potential ([6]; no agonist, monomeric expression in HEK-293): no unstimulated change in membrane potential
